The test deals with T1, IRAK4 (Homo sapiens, UniProt Q9NWZ3).
T1 sequence (Q9NWZ3 1-460): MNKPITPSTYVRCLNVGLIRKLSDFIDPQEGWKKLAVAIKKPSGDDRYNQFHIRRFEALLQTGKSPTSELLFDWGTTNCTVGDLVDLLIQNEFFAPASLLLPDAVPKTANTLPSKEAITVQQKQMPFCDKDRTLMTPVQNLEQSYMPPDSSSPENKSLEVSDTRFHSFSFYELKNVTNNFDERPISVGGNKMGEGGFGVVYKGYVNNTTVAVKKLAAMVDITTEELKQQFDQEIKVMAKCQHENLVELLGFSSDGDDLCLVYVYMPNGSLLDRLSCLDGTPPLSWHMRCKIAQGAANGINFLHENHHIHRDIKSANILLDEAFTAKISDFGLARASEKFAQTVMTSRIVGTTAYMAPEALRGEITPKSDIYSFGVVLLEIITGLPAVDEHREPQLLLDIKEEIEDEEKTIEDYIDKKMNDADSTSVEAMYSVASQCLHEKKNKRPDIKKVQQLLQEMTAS
In words: IRAK-4 activity inhibition assay (Caliper). The class given is biochemical. The settings on record: 37 μM ATP, 3.5 nM IRAK4. How it is done:
A 1× kinase base buffer was prepared from 50 mM HEPES, pH 7.5 and 0.0015% Brij-35. A stop buffer was prepared from 100 mM HEPES, pH 7.5, 0.015% Brij-35, 0.2% Coating Reagent #3, and 50 mM EDTA.
Test compound was diluted to 50× of the final desired highest inhibitor concentration in reaction by 100% DMSO. 100 μl of this compound dilution was transferred to a well in a 96-well plate.
Test compound was serially diluted by transferring 30 μl to 60 μl of 100% DMSO in the next well and so forth for a total of 10 concentrations. 100 μl of 100% DMSO was added to two empty wells for no compound control and no enzyme control in the same 96-well plate.
A new 96-well plate was marked as intermediate plate. 5 μl of compound serial dilution was transferred from source plate to the corresponding wells of the intermediate plate. 45 μl of 1× kinase base buffer (KB buffer) was added to each well of the intermediate plate. The intermediate plate was placed for 10 min on a shaker.
5 μl of each well was transferred from the 96-well intermediate plate to a 384-well plate in duplicates. […] A2 of the 96-well plate is transferred to A3 and A4 of the 384-well plate, and so on.
IRAK4 and DTT in 1× kinase base buffer was added.
Assay plate already contained 5 μl of compound in 10% DMSO. Added 10 μl of 2.5× enzyme solution to each well of the 384-well assay plate, except no enzyme control wells. […] Added 10 μl of 1× kinase base buffer to no enzyme control wells in the assay plate. Incubated at room temperature for 10 min.
Added 10 μl of 2.5× peptide solution to each well of the 384-well assay plate. […] Incubated at 28° C. for 40 minutes. Added 25 μl of stop buffer to stop reaction. Collected data on Caliper.
Copied conversion % data from Caliper program. Converted conversion % values to percent inhibition values. Percent inhibition=(max−conversion %)/(max−min)*100, where “max” means the conversion % of DMSO control and “min” means the conversion % of no enzyme control.
The compound numbers correspond to the compound numbers in Table 1. […] “NA” stands for “not assayed.”
Broadly, the IC50 is the concentration that inhibits the measured activity by half. The low end stands for higher potency, the high end for lower potency. For the molecule `NC(=O)[C@@H]1CCc2sc3ncnc(N[C@H]4CC[C@H](N5CCOCC5)CC4)c3c2C1` [Compound I-208, (12R)-3-[[4-(morpholin-4-yl)cyclohexyl]amino]-8-thia-4,6-diazatricyclo[7.4.0.0[2,7]]trideca-1(9),2(7),3,5-tetraene-12-carboxamide], the IC50 is less than 5 µM.

`CCSCC1CCc2sc3ncnc(O[C@H]4CC[C@H](N(C)C)CC4)c3c21` (some centres unmarked) [Compound I-39, 4-([3-[(ethylsulfanyl)methyl]-7-thia-9,11-diazatricyclo[6.4.0.0[2,6]]dodeca-1(12),2(6),8,10-tetraen-12-yl]oxy)-N,N-dimethylcyclohexan-1-amine] showed an IC50 of less than 5 µM.

The molecule `NC(=O)C[C@H]1CCc2sc3ncnc(O[C@H]4CC[C@H](N5CCNCC5)CC4)c3c21` [Compound I-131, 2-[(3R)-12-[[4-(piperazin-1-yl)cyclohexyl]oxy]-7-thia-9,11-diazatricyclo[6.4.0.0[2,6]]dodeca-1(12),2(6),8,10-tetraen-3-yl]acetamide] registered a concentration for half-maximal inhibition (IC50) of less than 5 µM.

`CN(C)[C@H]1CC[C@H](Oc2ncnc3sc4c(c23)CN(C(=O)CCCO)CC4)CC1` [Compound I-190, 1-(3-[[4-(dimethylamino)cyclohexyl]oxy]-8-thia-4,6, 12-triazatricyclo[7.4.0.0[2,7]]trideca-1(9),2,4,6-tetraen-12-yl)-4-hydroxybutan-1-one] registered an IC50 of 20 to 50 µM.

`CN(C)[C@H]1CC[C@H](Oc2ncnc3sc4c(c23)CN(C(=O)CCO)CC4)CC1` [Compound I-195, 1-(3-[[4-(dimethylamino)cyclohexyl]oxy]-8-thia-4,6, 12-triazatricyclo[7.4.0.0[2,7]]trideca-1(9),2,4,6-tetraen-12-yl)-3-hydroxypropan-1-one] registered an IC50 of 5 to 20 µM.

Consider `CC(=O)N1CCc2sc3ncnc(O[C@H]4CC[C@H](N5CCOCC5)CC4)c3c2C1` [Compound I-171, 1-(3-[[4-(morpholin-4-yl)cyclohexyl]oxy]-8-thia-4,6,12-triazatricyclo[7.4.0.0[2,7]]trideca-1(9),2(7),3,5-tetraen-12-yl)ethan-1-one], for which the concentration for half-maximal inhibition (IC50) was in the range of 5 to 20 µM.

`CN(C)[C@H]1CC[C@H](Oc2ncnc3sc4c(c23)CN(S(N)(=O)=O)CC4)CC1` [Compound I-238, 3-[[4-(dimethylamino)cyclohexyl]oxy]-8-thia-4,6, 12-triazatricyclo[7.4.0.0[2,7]]trideca-1(9),2(7),3,5-tetraene-12-sulfonamide]: the 50% inhibitory concentration (IC50) was less than 5 µM.

`NC(=O)C[C@H]1CCc2sc3ncnc(N[C@H]4CC[C@H](N5CCOCC5)CC4)c3c21` [Compound I-97, 2-[(3R)-12-[[4-(morpholin-4-yl)cyclohexyl]amino]-7-thia-9,11-diazatricyclo[6.4.0.0̂[2,6]]dodeca-1(12),2(6),8,10-tetraen-3-yl]acetamide]: the IC50 was less than 5 µM.

`CC(=O)N1CCc2sc3ncnc(O[C@H]4CC[C@H](N(C)C)CC4)c3c2C1` [Compound I-167] came in with an IC50 of less than 5 µM.

Consider `CN(C)[C@H]1CC[C@H](Oc2ncnc3sc4c(c23)[C@H](CCO)CC4)CC1` [Compound I-33, 2-[(3S)-12-[[4-(dimethylamino)cyclohexyl]oxy]-7-thia-9,11-diazatricyclo[6.4.0.0[2,6]]dodeca-1(12),2(6),8,10-tetraen-3-yl]ethan-1-ol], for which the 50% inhibitory concentration (IC50) is less than 5 µM.

As for `COCCN(C)[C@H]1CC[C@H](Oc2ncnc3sc4c(c23)[C@@H](CC(N)=O)CC4)CC1` [Compound I-130, 2-((R)-4-(((1r,4R)-4-((2-methoxyethyl)(methyl)amino)cyclohexyl)oxy)-6,7-dihydro-5H-cyclopenta[4,5]thieno[2,3-d]pyrimidin-5-yl)acetamide], the IC50 was less than 5 µM.

For `CNC(=O)N1CCc2sc3ncnc(O[C@H]4CC[C@H](N(C)C)CC4)c3c2C1` [Compound I-169, 3-[[4-(dimethylamino)cyclohexyl]oxy]-N-methyl-8-thia-4,6,12-triazatricyclo[7.4.0.0[2,7]]trideca-1(9),2(7),3,5-tetraene-12-carboxamide], the IC50 was less than 5 µM.

Molecule `CN(CC(=O)N1CCCC1)[C@H]1CC[C@H](Nc2ncnc3sc4c(c23)[C@@H](CCO)CC4)CC1` [Compound I-116, 2-(((1R,4r)-4-(((R)-5-(2-hydroxyethyl)-6,7-dihydro-5H-cyclopenta[4,5]thieno[2,3-d]pyrimidin-4-yl)amino)cyclohexyl)(methyl)amino)-1-(pyrrolidin-1-yl)ethanone] gave a half-maximal inhibitory concentration (IC50) of less than 5 µM.

In turn, `NC(=O)C[C@H]1CCc2sc3ncnc(OC4CCC(NC5COC5)CC4)c3c21` (stereo partly drawn) [Compound I-132, 2-[(3R)-12-([4-[(oxetan-3-yl)amino]cyclohexyl]oxy)-7-thia-9,11-diazatricyclo[6.4.0.0[2,6]]dodeca-1(8),2(6),9,11-tetraen-3-yl]acetamide] gave an IC50 of less than 5 µM.

`OC[C@H]1CCc2sc3ncnc(O[C@H]4CC[C@H](N5CCOCC5)CC4)c3c2C1` [Compound I-216, [(12S)-3-[[4-(morpholin-4-yl)cyclohexyl]oxy]-8-thia-4,6-diazatricyclo[7.4.0.0[2,7]]trideca-1(9),2(7),3,5-tetraen-12-yl]methanol] had an IC50 of less than 5 µM.

With `CCS(=O)(=O)CC1CCc2sc3ncnc(O[C@H]4CC[C@H](N(C)C)CC4)c3c21` (some centres unmarked) [Compound I-47, 4-([3-[(ethanesulfonyl)methyl]-7-thia-9,11-diazatricyclo[6.4.0.0[2,6]]dodeca-1(12),2(6),8,10-tetraen-12-yl]oxy)-N,N-dimethylcyclohexan-1-amine], the IC50 was less than 5 µM.

Molecule `NC(=O)[C@H](O)C[C@H]1CCc2sc3ncnc(O[C@H]4CC[C@H](N5CCCCC5)CC4)c3c21` [Compound I-218, (R)-2-hydroxy-3-((R)-4-(((1r,4R)-4-(piperidin-1-yl)cyclohexyl)oxy)-6,7-dihydro-5H-cyclopenta[4,5]thieno[2,3-d]pyrimidin-5-yl)propanamide] had an IC50 of less than 5 µM.

In turn, `CN[C@H]1CC[C@H](Oc2ncnc3sc4c(c23)[C@@H](C[C@@H](O)C(N)=O)CC4)CC1` [Compound I-140, (2R)-2-hydroxy-3-[(3R)-12-[[4-(methylamino)cyclohexyl]oxy]-7-thia-9,11-diazatricyclo[6.4.0.0[2,6]]dodeca-1(8),2(6),9,11-tetraen-3-yl]propanamide] had an IC50 of less than 5 µM.

`CN(C)[C@H]1CC[C@H](Oc2ncnc3sc4c(c23)[C@@H](C[C@@H](O)C(N)=O)CC4)CC1` [Compound I-75, (2R)-3-[(3R)-12-[[4-(dimethylamino)cyclohexyl]oxy]-7-thia-9,11-diazatricyclo[6.4.0.0̂[2,6]]dodeca-1(8),2(6),9,11-tetraen-3-yl]-2-hydroxypropanamide] registered an IC50 of less than 5 µM.

Molecule `C[C@H](O)C[C@H]1CCc2sc3ncnc(N[C@H]4CC[C@H](N(C)C)CC4)c3c21` [Compound I-55] had a 50% inhibitory concentration (IC50) of less than 5 µM.

In the case of `OC[C@@H]1CCc2sc3ncnc(N[C@H]4CC[C@H](N5CCOCC5)CC4)c3c2C1` [Compound I-211, [(12R)-3-[[4-(morpholin-4-yl)cyclohexyl]amino]-8-thia-4,6-diazatricyclo[7.4.0.0[2,7]]trideca-1(9),2,4,6-tetraen-12-yl]methanol], the concentration for half-maximal inhibition (IC50) is less than 5 µM.

`CN(CCO)C(=O)C1CCc2sc3ncnc(N[C@H]4CC[C@H](N(C)C)CC4)c3c21` (some centres unmarked) [Compound I-29, 12-[[4-(dimethylamino)cyclohexyl]amino]-N-(2-hydroxyethyl)-N-methyl-7-thia-9,11-diazatricyclo[6.4.0.0̂[2,6]]dodeca-1(12),2(6),8,10-tetraene-3-carboxamide] came in with an IC50 greater than 50 µM.

In turn, `CC[C@H](C[C@H]1CCc2sc3ncnc(N[C@H]4CC[C@H](N(C)C)CC4)c3c21)OC` [Compound I-147, (1r,4R)-N1-((R)-5-((R)-2-methoxybutyl)-6,7-dihydro-5H-cyclopenta[4,5]thieno[2,3-d]pyrimidin-4-yl)-N4,N4-dimethylcyclohexane-1,4-diamine] displayed an IC50 of less than 5 µM.
